According to patent US4206235A, “Novel 2,5-dihalophenyl-β-substituted sulfone fungicides” (priority 1976, dated 1980):
≈ marks a conversion by molar mass, not a printed value.

What was measured:
[1] = test system: Fusarium oxysporum sp. f.lycopersici; assay: Fungitoxicity in culture media (agar), growth inhibition; type: cell-based; details: 50% inhibition of growth, read-out: ED50 (the source's name)
Procedure: (§1) Acetone solutions of the compound were mixed with an aliquot of distilled water and the fine suspension obtained was mixed with cooled but melted agar medium and poured into Petri dishes.
(§2) The tested fungi were grown on the solidified media. Growth of the fungus was measured and percent inhibition was calculated by comparing with the appropriate acetone-water controls. Media were usually Martin's or potato-dextrose agar media.
(§3) ED50 = effective dose, sufficient for the 50% inhibition of growth of the fungus, expressed in p.p.m.

[2] = test system: Rhizoctonia bataticola; assay: as above; type: cell-based; details: Macrophomina phaseolina, 50% inhibition of growth, read-out: ED50 (the source's name)
Procedure: as §1, §2, §3

[3] = test system: Rhizoctonia solani; assay: as above; type: cell-based; details: 50% inhibition of growth, read-out: ED50 (the source's name)
Procedure: as §1, §2, §3

[4] = test system: Venturia inaequalis; assay: Control of apple scab in greenhouse test, apple seedlings; type: in vivo; details: Barrat & Horsfall Scale, 1 = 0%, 12 = 100% leaf scabbed, 15 days after inoculation
[5] = test system: Pythium aphanidermatum; assay: Fungitoxicity in culture media (agar), growth inhibition; type: cell-based; details: 50% inhibition of growth, read-out: ED50 (the source's name)
Procedure: as §1, §2, §3

[6] = test system: Rhizopus stolonifer; assay: as above; type: cell-based; details: 50% inhibition of growth, read-out: ED50 (the source's name)
Procedure: as §1, §2, §3

[7] = test system: Sclerotinia rolfsil; assay: as above; type: cell-based; details: 50% inhibition of growth, read-out: ED50 (the source's name)
Procedure: as §1, §2, §3

[8] = test system: Venturia inaequalis; assay: Comparative performance of 2 compounds and 2 commercial fungicides, spray treated plants in greenhouse; type: in vivo
[9] = test system: Penicillium funiculosum; assay: Halo test on plasticized PVC sheeting; type: cell-based; design: key to growth under the test sample (GUS): +: no reduction in growth; ±: slight reduction in growth; .-+.: moderate reduction in growth; -: complete reduction in growth
[10] = test system: Trichoderma viride; assay: Halo test on plasticized PVC sheeting; type: cell-based; design: key to growth under the test sample (GUS): +: no reduction in growth; ±: slight reduction in growth; .-+.: moderate reduction in growth; -: complete reduction in growth
[11] = test system: Aspergillus flavus; assay: Halo test on plasticized PVC sheeting; type: cell-based; design: key to growth under the test sample (GUS): +: no reduction in growth; ±: slight reduction in growth; .-+.: moderate reduction in growth; -: complete reduction in growth
[12] = test system: Aspergillus niger; assay: Halo test on plasticized PVC sheeting; type: cell-based; design: key to growth under the test sample (GUS): +: no reduction in growth; ±: slight reduction in growth; .-+.: moderate reduction in growth; -: complete reduction in growth
[13] = test system: Cladosporium cladosporoides; assay: Halo test on plasticized PVC sheeting; type: cell-based; design: key to growth under the test sample (GUS): +: no reduction in growth; ±: slight reduction in growth; .-+.: moderate reduction in growth; -: complete reduction in growth
[14] = test system: Paecilomyces varioti; assay: Halo test on plasticized PVC sheeting; type: cell-based; design: key to growth under the test sample (GUS): +: no reduction in growth; ±: slight reduction in growth; .-+.: moderate reduction in growth; -: complete reduction in growth
[15] = test system: Alternaria tenuis; assay: Halo test on plasticized PVC sheeting; type: cell-based; design: key to growth under the test sample (GUS): +: no reduction in growth; ±: slight reduction in growth; .-+.: moderate reduction in growth; -: complete reduction in growth; details: for Zone of growth inhibition (halo): brackets = growth partially suppressed
[16] = test system: mixed spore suspension of Aspergillus flavus, Aspergillus niger, Paecilomyces varioti, Penicillium funiculosum, Trichoderma viride, Alternaria tenuis …; assay: Weight Loss Test of PVC sheeting
[17] = Test No.1, inoculum 2.5 ×10^5 /ml, 50 p.p.m.
[18] = Test No.1, inoculum 2.5 ×10^5 /ml, 100 p.p.m.
[19] = Test No.1, inoculum 2.5 ×10^5 /ml, 500 p.p.m.
[20] = Test No.2, inoculum 5.0 ×10^5 /ml, 50 p.p.m.
[21] = Test No.2, inoculum 5.0 ×10^5 /ml, 100 p.p.m.
[22] = Test No.2, inoculum 5.0 ×10^5 /ml, 500 p.p.m.
[23] = 0.5% in PVC sheeting, brackets = growth partially suppressed

## O=S(=O)(CC(Cl)Br)c1cc(Cl)ccc1Cl (stereo not drawn) [Example 6, 2,5-dichlorophenyl-β-chloro-β-bromoethyl sulfone]
[1]
  IC50: > 50 µg/mL
[2]
  IC50: 20 µg/mL (≈ 56.7 µM)
[3]
  IC50: 10 µg/mL (≈ 28.4 µM)
[4]; 50 p.p.m.
  Mean disease severity: 4.0
[4]; 100 p.p.m.
  Mean disease severity: 1.0
[4]; 500 p.p.m.
  Mean disease severity: 1.0

## O=S(=O)(CC(Cl)Cl)c1cc(Cl)ccc1Cl [Example 1, 2,5-dichlorophenyl-β,β'-dichloroethyl sulfone]
[1]
  IC50: 50 µg/mL (≈ 162 µM)
[5]
  IC50: 10 µg/mL (≈ 32.5 µM)
[2]
  IC50: 5 µg/mL (≈ 16.2 µM)
[3]
  IC50: 5 µg/mL (≈ 16.2 µM)
[6]
  IC50: 50 µg/mL (≈ 162 µM)
[7]
  IC50: 10 µg/mL (≈ 32.5 µM)
[4]; 50 p.p.m.
  Mean disease severity: 3.5
[4]; 100 p.p.m.
  Mean disease severity: 3.0
[4]; 500 p.p.m.
  Mean disease severity: 1.0
[8]; [17]
  Disease control: 63.6%
[8]; [18]
  Disease control: 97.4%
[8]; [19]
  Disease control: 100%
[8]; [20]
  Disease control: 98.2%
[8]; [21]
  Disease control: 99.5%
[8]; [22]
  Disease control: 100%
[9]; 0.5% in PVC sheeting
  growth under the test sample (GUS): +
[9]; 1% in PVC sheeting
  Zone of growth inhibition (halo): 2.5 millimetres
  growth under the test sample (GUS): .-+.
[10]; 0.5% in PVC sheeting
  Zone of growth inhibition (halo): 0 millimetres
  growth under the test sample (GUS): +
[10]; 1% in PVC sheeting
  Zone of growth inhibition (halo): 0 millimetres
  growth under the test sample (GUS): +
[11]; 0.5% in PVC sheeting
  Zone of growth inhibition (halo): 0 millimetres
  growth under the test sample (GUS): .-+.
[11]; 1% in PVC sheeting
  Zone of growth inhibition (halo): 0 millimetres
  growth under the test sample (GUS): .-+.
[12]; 0.5% in PVC sheeting
  growth under the test sample (GUS): .-+.
[12]; 1% in PVC sheeting
  Zone of growth inhibition (halo): 6 millimetres
  growth under the test sample (GUS): -
[13]; 0.5% in PVC sheeting
  growth under the test sample (GUS): -
[13]; [23]
  Zone of growth inhibition (halo): 5 millimetres
[13]; 1% in PVC sheeting
  Zone of growth inhibition (halo): 12 millimetres
  growth under the test sample (GUS): -
[14]; 0.5% in PVC sheeting
  Zone of growth inhibition (halo): 0 millimetres
  growth under the test sample (GUS): +
[14]; 1% in PVC sheeting
  Zone of growth inhibition (halo): 15 millimetres
  growth under the test sample (GUS): -
[15]; 0.5% in PVC sheeting
  growth under the test sample (GUS): -
  Zone of growth inhibition (halo): 11 millimetres
[15]; 1% in PVC sheeting
  growth under the test sample (GUS): -
  Zone of growth inhibition (halo): 17 millimetres

## O=S(=O)(CC(Cl)Cl)c1cc(Br)ccc1Br [Example 7, 2,5-dibromophenyl-β,β'-dichloroethyl sulfone]
[1]
  IC50: 50 µg/mL (≈ 126 µM)
[2]
  IC50: 20 µg/mL (≈ 50.4 µM)
[3]
  IC50: 5 µg/mL (≈ 12.6 µM)
[6]
  IC50: 50 µg/mL (≈ 126 µM)
[4]; 50 p.p.m.
  Mean disease severity: 5.7
[4]; 100 p.p.m.
  Mean disease severity: 5.3
[4]; 500 p.p.m.
  Mean disease severity: 5.0

## O=S(=O)(CC(Cl)(Cl)Cl)c1cc(Br)ccc1Br [Example 8, 2,5-dibromophenyl-β,β',β"-trichloroethyl sulfone]
[4]; 50 p.p.m.
  Mean disease severity: 6.0
[4]; 100 p.p.m.
  Mean disease severity: 2.0
[4]; 500 p.p.m.
  Mean disease severity: 1.3
[8]; [17]
  Disease control: 86.4%
[8]; [18]
  Disease control: 97.4%
[8]; [19]
  Disease control: 100%
[8]; [20]
  Disease control: 99.9%
[8]; [21]
  Disease control: 100%
[8]; [22]
  Disease control: 99.9%

## O=S(=O)(CC(Cl)(Cl)Cl)c1cc(Cl)ccc1Cl [Example 2, 2,5-dichlorophenyl,β,β',β"-trichloroethyl sulfone]
[1]
  IC50: 50 µg/mL (≈ 146 µM)
[5]
  IC50: 5 µg/mL (≈ 14.6 µM)
[2]
  IC50: 10 µg/mL (≈ 29.2 µM)
[3]
  IC50: 10 µg/mL (≈ 29.2 µM)
[7]
  IC50: 10 µg/mL (≈ 29.2 µM)
[4]; 50 p.p.m.
  Mean disease severity: 5.0
[4]; 100 p.p.m.
  Mean disease severity: 2.9
[4]; 500 p.p.m.
  Mean disease severity: 1.3
[9]; 0.5% in PVC sheeting
  growth under the test sample (GUS): +
[9]; [23]
  Zone of growth inhibition (halo): 0 millimetres
[9]; 1% in PVC sheeting
  Zone of growth inhibition (halo): 0 millimetres
  growth under the test sample (GUS): +
[10]; 0.5% in PVC sheeting
  Zone of growth inhibition (halo): 0 millimetres
  growth under the test sample (GUS): +
[10]; 1% in PVC sheeting
  Zone of growth inhibition (halo): 0 millimetres
  growth under the test sample (GUS): +
[11]; 0.5% in PVC sheeting
  Zone of growth inhibition (halo): 0 millimetres
  growth under the test sample (GUS): +
[11]; 1% in PVC sheeting
  Zone of growth inhibition (halo): 0 millimetres
  growth under the test sample (GUS): +
[12]; 0.5% in PVC sheeting
  growth under the test sample (GUS): +
[12]; [23]
  Zone of growth inhibition (halo): 0 millimetres
[12]; 1% in PVC sheeting
  Zone of growth inhibition (halo): 0 millimetres
  growth under the test sample (GUS): +
[13]; 0.5% in PVC sheeting
  growth under the test sample (GUS): .-+.
[13]; 1% in PVC sheeting
  Zone of growth inhibition (halo): 8 millimetres
  growth under the test sample (GUS): -
[14]; 0.5% in PVC sheeting
  Zone of growth inhibition (halo): 0 millimetres
  growth under the test sample (GUS): +
[14]; 1% in PVC sheeting
  Zone of growth inhibition (halo): 0 millimetres
  growth under the test sample (GUS): +
[15]; 0.5% in PVC sheeting
  growth under the test sample (GUS): .-+.
[15]; 1% in PVC sheeting
  growth under the test sample (GUS): -

## [Cl][Hg][Cl] [mercuric chloride, reference compound]
[16]
  changes in weight (in words): only negligible changes in weight

## O=S(=O)(CC(Cl)c1ccccc1)c1cc(Cl)ccc1Cl (stereo not drawn) [Example 5, 2,5-dichlorophenyl-β-chloro-β-phenylethyl sulfone]
[1]
  IC50: > 50 µg/mL
[2]
  IC50: 50 µg/mL (≈ 143 µM)
[3]
  IC50: 20 µg/mL (≈ 57.2 µM)
[4]; 50 p.p.m.
  Mean disease severity: 6.0
[4]; 100 p.p.m.
  Mean disease severity: 2.3
[4]; 500 p.p.m.
  Mean disease severity: 3.5
